Our source for the IC50 and EC50 values is US20130109682A1, “CYCLIC ETHER COMPOUNDS USEFUL AS KINASE INHIBITORS” (NOVARTIS AG, priority 2010, published 2013).

Molecules are shown by their SMILES. pEC50, pIC50: −log10 of the molar value. Like-named read-outs stand apart in the source and are kept apart here.

In assay [1] the target is T1, FLT3D835Y kinase (Homo sapiens, UniProt P36888, D835Y).
T1 sequence (P36888 27-993 D835Y): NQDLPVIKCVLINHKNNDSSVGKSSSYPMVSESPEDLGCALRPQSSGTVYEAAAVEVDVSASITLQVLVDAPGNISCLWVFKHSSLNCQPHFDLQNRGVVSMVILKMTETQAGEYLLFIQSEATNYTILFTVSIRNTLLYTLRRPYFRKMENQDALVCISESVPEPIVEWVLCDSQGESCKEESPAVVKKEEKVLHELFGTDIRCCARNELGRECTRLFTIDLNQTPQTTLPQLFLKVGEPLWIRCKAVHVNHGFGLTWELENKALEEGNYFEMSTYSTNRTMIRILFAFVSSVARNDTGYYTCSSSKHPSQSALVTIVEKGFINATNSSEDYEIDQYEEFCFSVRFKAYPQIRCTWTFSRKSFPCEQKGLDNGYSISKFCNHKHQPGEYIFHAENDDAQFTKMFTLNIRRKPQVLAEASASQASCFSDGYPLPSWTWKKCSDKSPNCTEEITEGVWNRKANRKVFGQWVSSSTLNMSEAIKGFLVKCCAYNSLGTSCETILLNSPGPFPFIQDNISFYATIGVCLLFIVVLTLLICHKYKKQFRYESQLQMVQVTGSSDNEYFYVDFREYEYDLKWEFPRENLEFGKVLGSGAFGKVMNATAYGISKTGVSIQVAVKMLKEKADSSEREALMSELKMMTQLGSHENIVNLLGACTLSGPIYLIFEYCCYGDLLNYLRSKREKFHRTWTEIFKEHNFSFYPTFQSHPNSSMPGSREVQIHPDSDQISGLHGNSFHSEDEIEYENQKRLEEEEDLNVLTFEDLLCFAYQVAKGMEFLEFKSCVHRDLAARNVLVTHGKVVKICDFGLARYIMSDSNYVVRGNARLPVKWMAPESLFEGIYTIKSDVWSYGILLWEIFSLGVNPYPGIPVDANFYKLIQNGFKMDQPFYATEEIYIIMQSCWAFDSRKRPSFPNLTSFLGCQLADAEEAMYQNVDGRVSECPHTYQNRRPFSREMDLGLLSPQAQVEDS
As to the kind of experiment: FLT3D835Y kinase inhibition assay (LanthaScreen TR-FRET). The note with it: read-out: FLT3 IC50. The assay is classed as biochemical. As for the experimental part:
FLT3D835Y Kinase Inhibition Assay
LanthaScreen™ is the detection of Time-Resolved Fluorescence Resonance Energy Transfer (TR-FRET) using lanthanide chelates to measure interactions between various binding partners. The application of TR-FRET to assay kinase activity was first described by Mathis (1995). A TR-FRET assay was used to measure FLT3D835Y kinase inhibitory activity. The assay panel was run on a Biomek FX liquid handling workstations. To the assay plates containing […] compound or control solutions, 4.5 μL of buffer A (50 mM TRIS-HCl pH 7.4, 2 mM DTT, 0.02% Tween 20, 0.02 mM Na3VO4, H2O nanpure) including a generic concentration of ATP (2 μM f.c.) was added per well, followed by […] of buffer B (4 uM ATP in Buffer A) including a generic concentration of polyEAY (50 nM f.c.), FLT3D835Y kinase, and divalent cations. Final concentration of kinase and cations were: [FLT3D835Y kinase]=5.7 nM, [Mg]=3 mM, [Mn]=3 mM. After 1 hour of incubation the kinase reactions were stopped by the addition of 4.5 μL of stop solution D (50 mM EDTA, 20 mM TRIS-HCl pH 7.4, 0.04% NP-40) immediately followed by 4.5 μL of buffer A (50 mM TRIS-HCl pH 7.4, 2 mM DTT, 0.02% Tween 20, 0.02 mM Na3VO4, H2O nanpure) including the Tb-labeled P-20 antibody to give a total detection volume of […]. After an incubation time of 45 min in the dark, the plates were transferred into the Pherastar fluorescence reader for counting. The effect of compound on the enzymatic activity was obtained from the linear progress curves and determined from one reading (end point measurement).
A general note: TR-FRET usually uses a lanthanide donor and a delayed reading to cut background.

The subject of assay [2] is KMS11 (human myeloma cell line). In words: Cell proliferation assay (CellTiter-Glo), KMS11. Particulars: Homo sapiens, KMS-11. Format: cell-based. In outline:
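EC50 derived from CellTiter-Glo luminescence after 3-day exposure at 37° C. Compound was diluted to 2× in medium and added to an equal volume of cells. KMS11 myeloma cells were plated on assay day at 2000/well in IMDM with 10% FBS and sodium pyruvate.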
On the technique in general: In ATP-based viability assays light output follows the ATP content of the culture.

In assay [3] the target is PIM2 (Homo sapiens, UniProt Q9P1W9). As to the kind of experiment: Pim 2 AlphaScreen assay (high ATP). The assay is classed as biochemical. Particulars: read-out: Pim2 IC50. In outline: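 IC50 values rest on detection of phosphorylated Bad peptide: after a ~2 h kinase reaction, an EDTA stop buffer containing anti-phospho Ser/Thr antibody, Protein A and streptavidin AlphaScreen beads was added and read after overnight dark incubation. ATP was high (11-125× Km), with 2.5% DMSO in pH 7.5 Hepes buffer containing MgCl2, BSA, Tween-20 and DTT.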
Background: In Alpha technology, singlet oxygen from a donor bead excites a nearby acceptor bead.

Setting [4] is: KMS11 cells, cell proliferation, read-out: KMS11-Luc EC50.

Sequence of PIM2 (Q9P1W9 whole entry): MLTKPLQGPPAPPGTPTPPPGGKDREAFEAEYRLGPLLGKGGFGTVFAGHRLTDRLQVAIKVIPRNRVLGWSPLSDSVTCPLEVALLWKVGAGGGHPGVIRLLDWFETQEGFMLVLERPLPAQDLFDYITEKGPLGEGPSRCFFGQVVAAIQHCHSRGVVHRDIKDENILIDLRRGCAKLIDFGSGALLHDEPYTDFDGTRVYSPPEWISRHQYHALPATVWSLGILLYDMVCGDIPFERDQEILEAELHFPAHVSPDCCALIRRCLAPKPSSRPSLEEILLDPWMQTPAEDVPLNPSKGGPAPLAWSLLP

As a reminder, the pIC50 is the IC50 on a negative log10 scale, so that one unit is a factor of ten. As a reminder, the pEC50 is the EC50 on a negative log10 scale, so that one unit is a factor of ten. Take `Nc1ncc(-c2ccccc2)nc1C(=O)Nc1cnccc1[C@H]1C[C@@H](N)[C@@]2(O)CCC[C@H]2O1` [Example 183, 3-amino-N-(4-((2R,4R,4aS,7aR)-4-amino-4a-hydroxyoctahydrocyclopenta[b]pyran-2-yl)pyridin-3-yl)-6-phenylpyrazine-2-carboxamide]: the figures for the pIC50 in assay [1] and in assay [3] were 8.36 and 7.12, respectively. In addition, the pEC50 in assay [2] (setting [4]) was 5.80.
Take `Nc1ncc(-c2ccccc2)nc1C(=O)Nc1cnccc1[C@@H]1C[C@H](N)[C@]2(O)CCC[C@@H]2O1` [Example 185, 3-amino-N-(4-((2S,4S,4aR,7aS)-4-amino-4a-hydroxyoctahydrocyclopenta[b]pyran-2-yl)pyridin-3-yl)-6-phenylpyrazine-2-carboxamide]: the pIC50 was 6.00 in assay [1] and 5.19 in assay [3]. The pEC50 in assay [2] (setting [4]) was 5.03.
`CC[C@]1(O)[C@H](N)C[C@H](c2ccncc2NC(=O)c2nc(-c3ccccc3)cnc2N)O[C@@H]1C` [Example 187, 3-amino-N-(4-((2R,4R,5S,6R)-4-amino-5-ethyl-5-hydroxy-6-methyltetrahydro-2H-pyran-2-yl)pyridin-3-yl)-6-phenylpyrazine-2-carboxamide]: the results for the pIC50 in assay [1] and in assay [3] were 8.77 and 7.06, respectively. Further, the pEC50 in assay [2] (setting [4]) was 6.02.
The corresponding values for `CC[C@]1(O)[C@H](C)O[C@H](c2ccncc2NC(=O)c2nc(-c3ccccc3)cnc2N)C[C@@H]1N` [Example 189, 3-amino-N-(4-((2S,4S,5R,6S)-4-amino-5-ethyl-5-hydroxy-6-methyltetrahydro-2H-pyran-2-yl)pyridin-3-yl)-6-phenylpyrazine-2-carboxamide] are 6.77, 4.60 and 5.05.
On to `N[C@@H]1C[C@H](c2ccncc2NC(=O)c2ccc(F)c(-c3c(F)cccc3F)n2)O[C@@H]2CCC[C@]12O` [Example 210, N-(4-((2R,4R,4aS,7aR)-4-amino-4a-hydroxyoctahydrocyclopenta[b]pyran-2-yl)pyridin-3-yl)-6-(2,6-difluorophenyl)-5-fluoropicolinamide], for which the pIC50 in assay [1] is 5.38. Also, the pEC50 in assay [2] (KMS11-Luc cells) is 6.19.
The matching figures for `Nc1cnc(-c2c(F)cccc2F)nc1C(=O)Nc1cnccc1[C@H]1C[C@@H](N)[C@@]2(O)CCC[C@H]2O1` [Example 213, 5-amino-N-(4-((2R,4R,4aS,7aR)-4-amino-4a-hydroxyoctahydrocyclopenta[b]pyran-2-yl)pyridin-3-yl)-2-(2,6-difluorophenyl)pyrimidine-4-carboxamide]: 5.46 and 5.55.
`N[C@@H]1C[C@H](c2ccncc2NC(=O)c2ccc(F)c(-c3c(F)cccc3F)n2)O[C@@H]2CCC[C@H]12` [Example 224, N-(4-((2R,4R,4aR,7aR)-4-aminooctahydrocyclopenta[b]pyran-2-yl)pyridin-3-yl)-6-(2,6-difluorophenyl)-5-fluoropicolinamide]: in assay [1], the negative-log IC50 (pIC50) was 5.80. In assay [2] (setting [4]), the pEC50 is 6.19.
In the case of `N[C@H]1C[C@@H](c2ccncc2NC(=O)c2csc(-c3c(F)cccc3F)n2)O[C@H]2CCC[C@H]21` [Example 230, N-(4-((2S,4S,4aS,7aS)-4-aminooctahydrocyclopenta[b]pyran-2-yl)pyridin-3-yl)-2-(2,6-difluorophenyl)thiazole-4-carboxamide], the pIC50 in assay [1] was 6.57. In addition, the pEC50 in assay [2] (setting [4]) was 5.52.
As for `Nc1cc(F)c(-c2c(F)cccc2F)nc1C(=O)Nc1cnccc1[C@H]1C[C@@H](N)[C@@]2(O)CCCC[C@H]2O1` [Example 238, 3-amino-N-(4-((2R,4R,4aS,8aR)-4-amino-4a-hydroxyoctahydro-2H-chromen-2-yl)pyridin-3-yl)-6-(2,6-difluorophenyl)-5-fluoropicolinamide], the pIC50 in assay [1] was 6.00; in assay [3], 8.74.
The matching figures for `COc1cc(F)c(-c2nc(C(=O)Nc3cnccc3[C@H]3C[C@@H](N)[C@](C)(O)[C@@H](C)O3)ccc2F)c(F)c1` [Example 242, N-(4-((2R,4R,5S,6R)-4-amino-5-hydroxy-5,6-dimethyltetrahydro-2H-pyran-2-yl)pyridin-3-yl)-6-(2,6-difluoro-4-methoxyphenyl)-5-fluoropicolinamide]: 5.92 and 8.00.
As for `CC1(C)C[C@@H](N)C[C@H](c2ccncc2NC(=O)c2nc(-c3ccccc3)cnc2N)O1` [Example 296, 3-amino-N-(4-((2R,4S)-4-amino-6,6-dimethyltetrahydro-2H-pyran-2-yl)pyridin-3-yl)-6-phenylpyrazine-2-carboxamide], the negative logarithm of the IC50 (pIC50) is 9.10 in assay [1] and 6.55 in assay [3].
Take `CC1(C)C[C@H](N)C[C@@H](c2ccncc2NC(=O)c2nc(-c3ccccc3)cnc2N)O1` [Example 297, 3-amino-N-(4-((2S,4R)-4-amino-6,6-dimethyltetrahydro-2H-pyran-2-yl)pyridin-3-yl)-6-phenylpyrazine-2-carboxamide]: the pIC50 was 7.64 in assay [1] and 6.29 in assay [3].
In the case of `C[C@@]1(O)[C@@H](N)C[C@@H](c2ccncc2NC(=O)c2nc(-c3ccccc3)cnc2N)OC12CC2` [Example 350, 3-amino-N-(4-((5S,7S,8R)-7-amino-8-hydroxy-8-methyl-4-oxaspiro[2.5]octan-5-yl)pyridin-3-yl)-6-phenylpyrazine-2-carboxamide], the figures for the pIC50 in assay [1] and in assay [3] were 7.36 and 6.10, respectively.
`C[C@]1(O)[C@@H](N)C[C@H](c2ccncc2NC(=O)c2nc(-c3ccccc3)cnc2N)OC12CC2` [Example 351, 3-amino-N-(4-((5R,7S,8S)-7-amino-8-hydroxy-8-methyl-4-oxaspiro[2.5]octan-5-yl)pyridin-3-yl)-6-phenylpyrazine-2-carboxamide]: the pIC50 was 8.30 in assay [1] and 6.27 in assay [3].
Consider `C[C@@]1(O)[C@H](N)C[C@@H](c2ccncc2NC(=O)c2nc(-c3ccccc3)cnc2N)OC12CC2` [Example 352, 3-amino-N-(4-((5S,7R,8R)-7-amino-8-hydroxy-8-methyl-4-oxaspiro[2.5]octan-5-yl)pyridin-3-yl)-6-phenylpyrazine-2-carboxamide], for which the pIC50 in assay [1] is 8.60; in assay [3] it was 5.70.
Take `C[C@]1(O)[C@H](N)C[C@H](c2ccncc2NC(=O)c2nc(-c3ccccc3)cnc2N)OC12CC2` [Example 353, 3-amino-N-(4-((5R,7R,8S)-7-amino-8-hydroxy-8-methyl-4-oxaspiro[2.5]octan-5-yl)pyridin-3-yl)-6-phenylpyrazine-2-carboxamide]: the pIC50 was 7.02 in assay [1] and 5.61 in assay [3].
